Test results published in US10842804B2 (MEDIGEN BIOTECHNOLOGY CORP., priority 2017, dated 2020).

Assay: Phase III trial: safety profiles, treatment completion and compliance
Details: in vivo
Experimental: After signing the consent form, the eligibility of each patient was verified according to the enrollment criteria by checking his/her medical records and current disease conditions. Eligible patients were stratified by tumor size (<5 cm vs. ≥5 cm) and vascular invasion (no vs. yes) and then randomized at a ratio of 1:1 within strata to receive PI-88 (160 mg/day) or a placebo by using a centralized interactive web response system (Cenduit Interactive Response Technology; Cenduit, Durham, N.C., USA).
PI-88 or placebo was administered in a single subcutaneous injection each day for four consecutive days per week for 3 weeks out of every 4 weeks (a cycle with 4-weeks). The days of injection were the same in every administration week. After an initial training period of 1-8 days, participants self-administered the study drug at home. Participants received treatment for up to 52 weeks and were followed until 96 weeks.
If the antiheparin antibody test was positive, the participant was asked to permanently discontinue the treatment.
The distributional properties of continuous variables are expressed as mean t standard deviation, categorical variables are presented as frequency and percentage (%), and the survival curves of the DFS period were estimated using the Kaplan-Meier method. Baseline demographic and clinical characteristics were compared between the PI-88 and placebo groups. […]

With muparfostat [PI-88] the “fatal AEs during the study treatment period” value was “No patients”.
